The numbers were not newly measured in patent publication US20180153879A1, “Solid Dispersion Comprising μ-Opioid Antagonists” (Sandoz AG, priority 2016, published 2018), which cites them from elsewhere.

The conditions of this series: free base form, exposure to air.

For the compound `C=CCN1CC[C@]23c4c5ccc(O)c4O[C@H]2[C@@H](OCCOCCOCCOCCOCCOCCOCCOC)CC[C@@]3(O)[C@H]1C5` [naloxegol, (5α,6α)-17-allyl-6-(2,5,8,11,14,17,20-heptaoxadocosan-22-yloxy)-4,5-epoxymorphinan-3,14-diol], the oxidative stability entry is “can undergo oxidative degradation upon exposure to air”.
